One test has as its system OVCAR-3. Briefly: Cytotoxicity against human OVCAR-3 cells assessed as inhibition of cell growth incubated for 72 hrs by CellTiter-Blue cell viability assay. Type of test: functional, cell-based. Particulars: OVCAR-3, 72 h. Background: Alamar Blue is a resazurin reagent that responds to reducing activity.
In test [1] the target is Forkhead box protein O3 (Homo sapiens) (UniProt O43524). Briefly: Transactivation of FOXO3a in human OVACAR-3 cells assessed as nuclear accumulation of FOXO3a at 2 uM incubated for 3 hrs by western blot analysis. It is filed as cell-based. The note with it: OVCAR-3, filed as activator. For orientation: A western blot detects proteins with antibodies after separation by electrophoresis.

Test [2] has the same target. Briefly: Activation of FOXO3a in human OVACAR-3 cells assessed as cytosolic localization of FOXO3a at 2 uM incubated for 3 hrs by DAPI staining based immunofluorescence assay. Type of test: cell-based. The note with it: OVCAR-3, filed as activator.
For test [3] the target is unchanged. Briefly: Activation of FOXO3a in human OVACAR-3 cells assessed as nuclear accumulation of FOXO3a at 2 uM incubated for 3 hrs by DAPI staining based immunofluorescence assay. Particulars: OVCAR-3, filed as activator. It is filed as cell-based.
For test [4] the target is unchanged. Briefly: Activation of FOXO3a in human OVACAR-3 cells assessed as increase in nuclear accumulation of FOXO3a at 1 uM incubated for 3 hrs by DAPI staining based immunofluorescence assay. It is filed as cell-based. The note with it: OVCAR-3, filed as activator.
For test [5] the target is unchanged. Briefly: Transactivation of FOXO3a in human OVACAR-3 cells assessed as decrease in cytosolic concentration of FOXO3a at 1 uM for 3 hrs by western blot analysis. Type of test: cell-based. The note with it: OVCAR-3, filed as activator.
Test [6] shares this target. Briefly: Transactivation of FOXO3a in human OVACAR-3 cells assessed as increase in nuclear accumulation of FOXO3a at 1 uM incubated for 24 hrs by western blot analysis. Type of test: cell-based. The note with it: OVCAR-3, filed as activator.
For test [7] the target is unchanged. Briefly: Activation of FOXO3a in human OVACAR-3 cells assessed as decrease in cytosolic localization of FOXO3a at 1 uM incubated for 3 hrs by DAPI staining based immunofluorescence assay. Type of test: cell-based. The note with it: OVCAR-3, filed as activator.

The source made the active and inactive calls. No cut-off for these calls is given here.

Sequence of Forkhead box protein O3 (Homo sapiens) (O43524 whole entry): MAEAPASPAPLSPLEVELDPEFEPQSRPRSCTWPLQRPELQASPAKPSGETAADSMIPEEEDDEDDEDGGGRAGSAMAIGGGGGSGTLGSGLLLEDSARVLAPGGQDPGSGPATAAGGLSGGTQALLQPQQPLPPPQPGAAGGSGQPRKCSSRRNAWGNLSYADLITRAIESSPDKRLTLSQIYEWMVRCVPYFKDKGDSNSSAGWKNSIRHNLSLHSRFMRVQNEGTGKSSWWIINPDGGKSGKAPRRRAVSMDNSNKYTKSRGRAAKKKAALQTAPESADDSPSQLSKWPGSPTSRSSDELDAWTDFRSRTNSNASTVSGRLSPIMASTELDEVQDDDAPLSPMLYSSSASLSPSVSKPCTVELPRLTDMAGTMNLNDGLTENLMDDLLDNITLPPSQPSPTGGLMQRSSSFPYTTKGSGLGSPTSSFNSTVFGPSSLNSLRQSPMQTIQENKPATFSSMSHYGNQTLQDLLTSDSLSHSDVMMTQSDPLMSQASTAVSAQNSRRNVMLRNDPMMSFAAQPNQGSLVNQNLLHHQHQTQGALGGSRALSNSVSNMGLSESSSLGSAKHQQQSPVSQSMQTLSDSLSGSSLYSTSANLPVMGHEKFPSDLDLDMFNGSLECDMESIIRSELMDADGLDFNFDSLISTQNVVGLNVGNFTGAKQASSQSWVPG

For the compound `COc1nsc2c1C(=O)c1c(O)ccc(C(=O)O)c1C2=O`, in the test with OVCAR-3, the IC50 (usually the midpoint of a concentration-inhibition curve) was 3.03 µM.
On to `O=c1cc(N2CCOCC2)oc2c(-c3ccccc3)cccc12` [LY-294002], for which the result in test [1], in test [2] and in test [3] was Active. Further, the IC50 in the test on OVCAR-3 was determined as 9.19 µM.
`COc1nsc2c1C(=O)c1c(O)cccc1C2=O`: the result in test [4], in test [5], in test [6] and in test [7] was Active. Besides, in the test on OVCAR-3, the IC50 came to 0.301 µM.
For `COc1nsc2c1C(=O)c1ccccc1C2=O`, the IC50 with OVCAR-3 was found to be 0.6 µM.

Source of the values: ChEMBL document CHEMBL5143579, “Aulosirazoles B and C from the Cyanobacterium Nostoc sp. UIC 10771: Analogues of an Isothiazolonaphthoquinone Scaffold that Activate Nuclear Transcription Factor FOXO3a in Ovarian Cancer Cells” (J Nat Prod, 2022).
